Drawing on ChEMBL document CHEMBL4665649, “Resistance mechanisms and cross-resistance for a pyridine-pyrimidine amide inhibitor of microtubule polymerization” (Bioorg Med Chem Lett, 2019), this text covers EC50 and Activity for 6 compounds.

Assay [1] concerns A2780. The assay can be described thus: Antiproliferative activity against human A2780 cells incubated for 72 hrs by ATPlite reagent based assay. The assay is classed as functional, cell-based. The following applies: A2780, 72 h. On the technique in general: ATP-based viability assays read luminescence as a measure of living cells.
Assay [2] has as its system A2780. Briefly: Antiproliferative activity against D4-9-31 resistance human A2780 cells incubated for 72 hrs by ATPlite reagent based assay. The assay is classed as functional, cell-based. The following applies: A2780, 72 h.
For assay [3], the system named is A2780. Briefly: Antiproliferative activity against human A2780 cells assessed as reduction in mitochondrial respiration. The assay is classed as functional, cell-based.
For assay [4], the system named is A2780. The assay can be described thus: Antiproliferative activity against D4-9-31 resistance human A2780 cells assessed as reduction in mitochondrial respiration. It counts as functional, cell-based.
Assay [5] concerns A2780. Briefly: Antiproliferative activity against human A2780 cells incubated for 72 hrs by live-cell imaging based assay. The assay is classed as functional. The following applies: A2780, 72 h.

Molecules are shown by their SMILES. The source made the active and inactive calls. The calls are words filed in the database; no cut-off is given here.

Regarding `CC(=O)O[C@H]1C(=O)[C@@]2(C)[C@H]([C@H](OC(=O)c3ccccc3)[C@]3(O)C[C@H](OC(=O)[C@H](O)[C@@H](NC(=O)c4ccccc4)c4ccccc4)C(C)=C1C3(C)C)[C@]1(OC(C)=O)CO[C@@H]1C[C@@H]2O` [PACLITAXEL], the figures for the EC50 with A2780 [1] and with A2780 [2] were 2.5 nM and 2.4 nM, respectively.

Consider `O=C(Nc1ccncc1)C(=O)c1cn(Cc2ccc(Cl)cc2)c2ccccc12` [INDIBULIN], for which the EC50 (in general, the concentration at which the effect is half-maximal) was found to be 19 nM in the assay on A2780 [1] and 20 nM with A2780 [2].

In the case of `Cc1ncc(C(=O)Nc2ccc(-c3cccc(S(=O)(=O)C4CC4)c3)cn2)cn1`, the result with A2780 [3] and in the assay on A2780 [4] was Active. Moreover, the EC50 was found to be 9.9 nM with A2780 [1], 23 nM with A2780 [2] and 12 nM with A2780 [5].

Take `COc1cc2c(c(OC)c1OC)-c1ccc(OC)c(=O)cc1[C@@H](NC(C)=O)CC2` [COLCHICINE]: the results for the EC50 with A2780 [1] and with A2780 [2] were 9.2 nM and 8.7 nM, respectively.

For the compound `CC[C@]1(O)C[C@H]2CN(CCc3c([nH]c4ccccc34)[C@@](C(=O)OC)(c3cc4c(cc3OC)N(C=O)[C@H]3[C@@](O)(C(=O)OC)[C@H](OC(C)=O)[C@]5(CC)C=CCN6CC[C@]43[C@@H]65)C2)C1` [VINCRISTINE], the values for the EC50 in the assay on A2780 [1] and with A2780 [2] were 3.4 nM and 3.9 nM, respectively.

For `C/C(=C\c1csc(C)n1)[C@@H]1C[C@@H]2O[C@]2(C)CCC[C@H](C)[C@H](O)[C@@H](C)C(=O)C(C)(C)[C@@H](O)CC(=O)O1` [PATUPILONE], the EC50 in the assay on A2780 [1] came out at 5.2 nM; with A2780 [2] it was 4 nM.
